#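 Protocol summary: plate cells (96-well), add compound at 5 concentrations, incubate 48 h, interpolate endpoints linearly. Here, GI50 denotes the concentration required for 50% inhibition of growth.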 Active and inactive are the calls of the source. Rule as the data show it: active = GI50 up to about 1.1 µM and inactive = higher.
# Key:
# Test in all cases: NCI anticancer screen, dose series, 48 h
# HOP-62 = test system: HOP-62
# ACHN = test system: ACHN
# SN12C = test system: SN12C
# A498 = test system: A498
# SR = test system: SR
# OVCAR-8 = test system: OVCAR-8
# K562 = test system: K562
# SW-620 = test system: SW-620
# HCT-116 = test system: HCT-116
# OVCAR-4 = test system: OVCAR-4
# RXF 393 = test system: RXF 393
# SF-539 = test system: SF-539
# OVCAR-5 = test system: OVCAR-5
# EKVX = test system: EKVX
Structure (SMILES),GI50 (HOP-62),GI50 (ACHN),GI50 (SN12C),GI50 (A498),GI50 (SR),GI50 (OVCAR-8),GI50 (K562),GI50 (SW-620),GI50 (HCT-116),GI50 (OVCAR-4),GI50 (RXF 393),GI50 (SF-539),GI50 (OVCAR-5),GI50 (EKVX)
CCOC(=O)NC(=O)c1cn(CCN2CCN(C(=O)CCCCCCCCCCNc3ncnc4c3ncn4C3OC(CO)C(O)C3O)CC2)c(=O)[nH]c1=O (configuration not stated),> 100 µM (inactive),> 100 µM (inactive),> 100 µM (inactive),> 100 µM (inactive),> 100 µM (inactive),> 100 µM (inactive),> 100 µM (inactive),> 100 µM (inactive),> 100 µM (inactive),,,,,
COc1cc(C(=O)Nc2cccc3ccccc23)c(Br)c(OC)c1OC,> 100 µM (inactive),81.7 µM (inactive),> 100 µM (inactive),,> 100 µM (inactive),0.0416 µM (active),43.5 µM (inactive),> 100 µM (inactive),67.9 µM (inactive),16.5 µM (inactive),42.7 µM (inactive),> 100 µM (inactive),64.4 µM (inactive),> 100 µM (inactive)
COC(=O)/C(=N\NC(N)=S)C(C(=O)OC)C(=O)C(=O)Nc1ccc(C)cc1 (configuration not stated),> 100 µM (inactive),> 100 µM (inactive),> 100 µM (inactive),> 100 µM (inactive),> 100 µM (inactive),> 100 µM (inactive),> 100 µM (inactive),> 100 µM (inactive),> 100 µM (inactive),> 100 µM (inactive),> 100 µM (inactive),> 100 µM (inactive),> 100 µM (inactive),> 100 µM (inactive)
CC1=NN(C(=O)c2ccc(Cl)cc2)C(=O)/C1=C/c1ccc(Cl)cc1,> 100 µM (inactive),> 100 µM (inactive),> 100 µM (inactive),> 100 µM (inactive),,> 100 µM (inactive),> 100 µM (inactive),> 100 µM (inactive),> 100 µM (inactive),> 100 µM (inactive),> 100 µM (inactive),> 100 µM (inactive),> 100 µM (inactive),> 100 µM (inactive)
CC(=O)NNc1nc(C)c(C(/C=C/c2ccc(Cl)cc2)=N/NC(=S)NN)s1,> 100 µM (inactive),> 100 µM (inactive),> 100 µM (inactive),> 100 µM (inactive),> 100 µM (inactive),> 100 µM (inactive),> 100 µM (inactive),> 100 µM (inactive),> 100 µM (inactive),> 100 µM (inactive),> 100 µM (inactive),> 100 µM (inactive),> 100 µM (inactive),> 100 µM (inactive)
CC(Oc1ccc(OCC2CCCCC2)cc1)C(=O)NCCO (configuration not stated),,> 100 µM (inactive),> 100 µM (inactive),48 µM (inactive),,> 100 µM (inactive),> 100 µM (inactive),,> 100 µM (inactive),> 100 µM (inactive),> 100 µM (inactive),> 100 µM (inactive),,
COC(=O)c1cc(C)c(C)c2c1NC(=O)CNC2=O,> 100 µM (inactive),> 100 µM (inactive),> 100 µM (inactive),> 100 µM (inactive),> 100 µM (inactive),> 100 µM (inactive),> 100 µM (inactive),> 100 µM (inactive),> 100 µM (inactive),> 100 µM (inactive),> 100 µM (inactive),> 100 µM (inactive),,> 100 µM (inactive)
O=c1c2cccc3cccc(c4n1CCCN=4)c32,> 100 µM (inactive),> 100 µM (inactive),> 100 µM (inactive),> 100 µM (inactive),31.3 µM (inactive),> 100 µM (inactive),> 100 µM (inactive),92.5 µM (inactive),31 µM (inactive),> 100 µM (inactive),> 100 µM (inactive),> 100 µM (inactive),88.1 µM (inactive),> 100 µM (inactive)
COc1ccc([C@@H]2CC(=O)N2)cc1,> 100 µM (inactive),> 100 µM (inactive),> 100 µM (inactive),> 100 µM (inactive),> 100 µM (inactive),> 100 µM (inactive),> 100 µM (inactive),,> 100 µM (inactive),> 100 µM (inactive),> 100 µM (inactive),> 100 µM (inactive),> 100 µM (inactive),> 100 µM (inactive)
CC1OC(=O)N(CCCC=C2SCCCS2)C1=O (configuration not stated),,> 100 µM (inactive),> 100 µM (inactive),> 100 µM (inactive),,> 100 µM (inactive),> 100 µM (inactive),> 100 µM (inactive),> 100 µM (inactive),> 100 µM (inactive),> 100 µM (inactive),> 100 µM (inactive),> 100 µM (inactive),> 100 µM (inactive)
CC(=O)C1=CSC2[C@H](NC(=O)Cc3ccccc3)C(=O)N2C1C(=O)OC(c1ccccc1)c1ccccc1 (some centres not stated),58.6 µM (inactive),,> 100 µM (inactive),> 100 µM (inactive),36.7 µM (inactive),> 100 µM (inactive),> 100 µM (inactive),93.5 µM (inactive),> 100 µM (inactive),> 100 µM (inactive),,> 100 µM (inactive),,> 100 µM (inactive)
CC(C)=Cc1cc(C(=O)NCCNC(=O)c2cc(C=C(C)C)nc(NC#N)n2)nc(NC#N)n1,> 100 µM (inactive),> 100 µM (inactive),> 100 µM (inactive),> 100 µM (inactive),,> 100 µM (inactive),> 100 µM (inactive),> 100 µM (inactive),> 100 µM (inactive),> 100 µM (inactive),> 100 µM (inactive),> 100 µM (inactive),> 100 µM (inactive),> 100 µM (inactive)
Cn1c2c(c3ccccc31)CCN(CCCN1CCN(c3cccc(Cl)c3)CC1)C2=O,18.7 µM (inactive),10.9 µM (inactive),21.4 µM (inactive),3.05 µM (inactive),,23.7 µM (inactive),14.8 µM (inactive),28 µM (inactive),12.3 µM (inactive),,14.9 µM (inactive),18.1 µM (inactive),,41.7 µM (inactive)
CC(C)C(Sc1nc(-c2ccccc2)c(-c2ccccc2)[nH]1)C(=O)NN (configuration not stated),> 100 µM (inactive),> 100 µM (inactive),> 100 µM (inactive),> 100 µM (inactive),,> 100 µM (inactive),,> 100 µM (inactive),> 100 µM (inactive),> 100 µM (inactive),31.6 µM (inactive),> 100 µM (inactive),> 100 µM (inactive),
O=C1CCN(CCC(F)(F)C(F)(F)C(F)(F)C(F)(F)F)C(=S)N1,> 100 µM (inactive),> 100 µM (inactive),> 100 µM (inactive),,> 100 µM (inactive),> 100 µM (inactive),> 100 µM (inactive),> 100 µM (inactive),> 100 µM (inactive),> 100 µM (inactive),> 100 µM (inactive),> 100 µM (inactive),> 100 µM (inactive),> 100 µM (inactive)
CSc1nc2nc(C(O)C(O)C(O)CO)cnc2c(=O)[nH]1 (configuration not stated),> 100 µM (inactive),> 100 µM (inactive),> 100 µM (inactive),> 100 µM (inactive),,> 100 µM (inactive),> 10 µM (inactive),> 100 µM (inactive),> 100 µM (inactive),,> 100 µM (inactive),> 100 µM (inactive),> 100 µM (inactive),> 100 µM (inactive)
CCN(CC)CCNC(=O)c1cccc2nc3ccccc3nc12,13.2 µM (inactive),5.06 µM (inactive),10.3 µM (inactive),11.7 µM (inactive),,14 µM (inactive),1.38 µM (inactive),5.48 µM (inactive),4.16 µM (inactive),12.8 µM (inactive),12.4 µM (inactive),8.45 µM (inactive),15.8 µM (inactive),23.4 µM (inactive)
OCCCCn1cnc2c(O)ncnc21,> 100 µM (inactive),> 100 µM (inactive),> 100 µM (inactive),> 100 µM (inactive),> 100 µM (inactive),> 100 µM (inactive),> 100 µM (inactive),> 100 µM (inactive),> 100 µM (inactive),> 100 µM (inactive),> 100 µM (inactive),> 100 µM (inactive),> 100 µM (inactive),> 100 µM (inactive)
O=C(CCc1n[nH]c(=S)o1)Nc1ccccc1C(F)(F)F,> 100 µM (inactive),> 100 µM (inactive),> 100 µM (inactive),> 100 µM (inactive),,> 100 µM (inactive),66.7 µM (inactive),18.2 µM (inactive),> 10 µM (inactive),> 100 µM (inactive),,> 100 µM (inactive),> 100 µM (inactive),> 100 µM (inactive)
Cc1[nH]nc2c1C(=O)C=C(N(CCO)c1ccccc1)C2=O,,,> 100 µM (inactive),,,> 100 µM (inactive),> 100 µM (inactive),> 100 µM (inactive),> 100 µM (inactive),,> 100 µM (inactive),> 100 µM (inactive),,> 100 µM (inactive)
COc1cc(C(=O)O)cc2c1[nH]c1ccccc12 [MUKOEIC ACID],> 25 µM (inactive),> 25 µM (inactive),> 25 µM (inactive),,> 25 µM (inactive),> 25 µM (inactive),> 25 µM (inactive),> 25 µM (inactive),> 25 µM (inactive),> 25 µM (inactive),,> 25 µM (inactive),> 25 µM (inactive),
CC(=O)OC1CCCn2c1nc1c2C(=O)C(C)=C(N2CC2)C1=O (configuration not stated),0.216 µM (active),0.254 µM (active),0.308 µM (active),0.161 µM (active),18.1 µM (inactive),0.388 µM (active),0.891 µM (active),0.167 µM (active),0.409 µM (active),0.773 µM (active),0.284 µM (active),0.519 µM (active),0.356 µM (active),0.721 µM (active)

# Source: ChEMBL document CHEMBL1201862, “PubChem BioAssay data set” (2004)
